This note sets out measurements from patent US20120094939A1, “ANTI-VIRAL COMPOUNDS, COMPOSITIONS AND METHODS” (priority 2007, published 2012).

Molecules are shown by their SMILES. Bounds are passed on as bounds.

In this series the test system is OR6 cells. As to the kind of experiment: Secondary assay cell viability (CellTiter-Glo). The following applies: 48 hours. The method, then: Secondary Assays-Hit Validation. Several hits from primary HTS, as well as functionally related compounds, were purchased from Sigma (St. Louis, Mo.), Calbiochem (San Diego, Calif.), and Microsource (Gaylordsville, Conn.). […] Ten mM of stock solutions of the individual compounds to be tested was prepared in the appropriate solvent (DMSO, ethanol, or H2O, according to the manufacturer's information) and stored at −20° C. Cells were seeded into 96-well plates at a density of 2000 cells/well in 100 μL of medium. The cells were incubated for 24 hours at 37° C. to obtain the optimal level of adherence. Solutions of candidate hit compounds were added to wells to achieve final concentrations of 0.1, 1, 10, 50, and 100 μM. The final concentration of DMSO or ethanol in every well was 1% or less by volume. Mock solutions were used as a negative control. PEG-IFN and ribavirin were used as positive controls at various concentrations, alone and in combination. The plates were then incubated at 37° C. with 5% CO2 for 48 hours before they were analyzed. Luminescent signal was generated using the Renilla luciferase assay kit (Promega) according to the manufacturer's instructions. Signal was then detected using a LumiCount (Packard BioScience Company) luminometer. Cell viability was assessed using CellTiter-Glo (Promega), following the manufacturer's instructions. All experiments were performed in triplicate.
Secondary Assays-Data Analysis. Values were presented as a percentage of mock treated control, which was arbitrarily set at 100%. Data were expressed as the mean (±) SD. […] Synergy calculations were performed using CalcuSyn (Biosoft; Cambridge, England).
Secondary Assays—Hit Validation: 10 mM of stock solutions of the individual compounds to be tested were prepared in DMSO and stored at −20° C. Cells were seeded into 96-well plates at a density of 2,000 cells/well in 100 μl of medium. The cells were incubated for 24 hours at 37° C. to obtain the optimal level of adherence. Solutions of candidate hit compounds were added to wells to achieve varying final concentrations between 0.01 and 100 μM. The final concentration of DMSO or ethanol in every well was 1% or less by volume. Mock solutions were used as a negative control. Peginterferon-alfa-2b (PEG-Intron; Schering Corp.; Kenilworth, N.J.) and ribavirin (Sigma; St. Louis, Mo.) were used as positive controls at various concentrations, alone and in combination. The plates were then incubated at 37° C. with 5% CO2 for 48 hours before they were analyzed. Luminescent signal was generated using the Renilla luciferase assay kit (Promega; Madison, Wis.) according to the manufacturer's instructions. Signal was then detected using a LumiCount™ (Packard BioScience Company; Downers Grove, Ill.) luminometer. Cell viability was assessed using CellTiter-Glo (Promega; Madison, Wis.), following the manufacturer's instructions. All experiments were performed in triplicate. Values were presented as a percentage of mock treated control, which was arbitrarily set at 100%. Data were expressed as the mean±SD.
Secondary Assays—Data Analysis: Values were presented as a percentage of mock treated control, which was arbitrarily set at 100%. Data were expressed as the mean±SD.
For orientation: ATP-based viability assays read luminescence as a measure of living cells.

With `COc1cc2c(cc1OC)-c1c/c(=N\c3c(C)cc(C)cc3C)n(C)c(=O)n1CC2` [trequinsin, reference compound], the “cytotoxicity (in words)” value is “significant cytotoxicity only at the higher concentrations of 50 and 100 μM”.

Regarding `CC(=O)OC[C@H]1O[C@H](CCO/N=C2/[C@H]3CCn4c(=O)n(-c5ccccc5)c(=O)n4[C@H]3[C@H](O)[C@@H]3O[C@H]23)C=C[C@@H]1OC(C)=O` [BUCMLD-B10A3], the “concentrations at which cytotoxic effects were exhibited” value is given as “above 7 μM”.

`Cc1cc(C)c(-c2cc([C@H](C)O/N=C3/[C@H]4CCn5c(=O)n(-c6ccccc6)c(=O)n5[C@H]4[C@H](O)[C@@H]4O[C@H]34)on2)c(C)c1` [BUCMLD-B10A11]: the “concentrations with no significant/observed cytotoxicity” value is no more than 10 µM.

As for `O=C1C2(CO)C=C(Br)C(CC2c2ccccc2)[C@@]12CO2` (some centres unmarked) [SM_A6B5_2P100], the “concentrations with no significant/observed cytotoxicity” value is no more than 30 µM.

Take `Cc1cc2c(nc1C)CCCN2CC(C)O/N=C1/[C@H]2CCn3c(=O)n(-c4ccccc4)c(=O)n3[C@H]2[C@H](O)[C@@H]2O[C@H]12` (some centres unmarked) [BUCMLD-B10A5]: the “concentrations at which cytotoxic effects were exhibited” value was no less than 30 µM.
